Values quoted from earlier work, collected in PubChem BioAssay AID1259409 (Chemical Carcinogenesis Research Information System (CCRIS), 2018).

Tested on: rodent chemically induced tumor inhibition, incidence and multiplicity
Test: CCRIS tumor inhibitor studies
Details: Dose [Inhibitor]: 0, Route [Inhibitor]: ORAL
Description: The CCRIS database contains chemical records with carcinogenicity, mutagenicity, tumor promotion, and tumor inhibition test results. It was developed by the National Cancer Institute (NCI). Data are derived from studies cited in primary journals, current awareness tools, NCI reports, and other sources. Test results have been reviewed by experts in carcinogenesis and mutagenesis.
CCRIS provides historical information from the years 1985 - 2011. It is no longer updated.
This is an archive assay for CCRIS tumor inhibitor studies.

Structure (SMILES): Oc1ccccc1O
- tumour outcome (control, treated, inhibition, significance) (Carcinogen: N-BIS(2-HYDROXYPROPYL)NITROSAMINE, 53609-64-6, 0.8% IN DIET FOR 30 WK BEGINNING POST CARCINOGEN TREATMENT (STUDY DURATION: 32 WK), Species: RAT, Strain/Sex: F344/MALE, Target Tissue: Type of Lesion: KIDNEY: PAPILLOMA OR TRANSITIONAL CELL CARCINOMA, Dose [Carcinogen]: 0.1% IN DRINKING WATER FOR 2 WK, Promoter: NONE USED): 10%, 10%, 0%, not significant
- tumour outcome (control, treated, inhibition, significance) (Carcinogen: N-BIS(2-HYDROXYPROPYL)NITROSAMINE, 53609-64-6, 0.8% IN DIET FOR 30 WK BEGINNING POST CARCINOGEN TREATMENT (STUDY DURATION: 32 WK), Species: RAT, Strain/Sex: F344/MALE, Target Tissue: Type of Lesion: LUNG: ADENOMA, Dose [Carcinogen]: 0.1% IN DRINKING WATER FOR 2 WK, Promoter: NONE USED): 100%, 95%, 5%, not calculated
- tumour outcome (control, treated, inhibition, significance) (Carcinogen: N-BIS(2-HYDROXYPROPYL)NITROSAMINE, 53609-64-6, 0.8% IN DIET FOR 30 WK BEGINNING POST CARCINOGEN TREATMENT (STUDY DURATION: 32 WK), Species: RAT, Strain/Sex: F344/MALE, Target Tissue: Type of Lesion: LUNG: CARCINOMA, Dose [Carcinogen]: 0.1% IN DRINKING WATER FOR 2 WK, Promoter: NONE USED): 45%, 20%, 56%, not calculated
- outcome (Carcinogen: N-BIS(2-HYDROXYPROPYL)NITROSAMINE, 53609-64-6, 0.8% IN DIET FOR 30 WK BEGINNING POST CARCINOGEN TREATMENT (STUDY DURATION: 32 WK), Species: RAT, Strain/Sex: F344/MALE, Target Tissue: Type of Lesion: THYROID: ADENOMA, Dose [Carcinogen]: 0.1% IN DRINKING WATER FOR 2 WK, Promoter: NONE USED): 5%, 5%, 0, not significant
- tumour outcome (control, treated, inhibition, significance) (Carcinogen: N-BIS(2-HYDROXYPROPYL)NITROSAMINE, 53609-64-6, 0.8% IN DIET FOR 30 WK BEGINNING POST CARCINOGEN TREATMENT (STUDY DURATION: 32 WK), Species: RAT, Strain/Sex: F344/MALE, Target Tissue: Type of Lesion: THYROID: CARCINOMA, Dose [Carcinogen]: 0.1% IN DRINKING WATER FOR 2 WK, Promoter: NONE USED): 20%, 5%, 75%, not calculated
- tumour outcome (control, treated, inhibition, significance) (Carcinogen: N-NITROSOBIS(2-OXOPROPYL)AMINE, 60599-38-4, 0.75% IN DIET FOR 16 WK BEGINNING 2 WK POST CARCINOGEN TREATMENT (STUDY DURATION: 20 WK), Species: HAMSTER, Strain/Sex: SYRIAN/FEMALE, Target Tissue: Type of Lesion: GALL BLADDER: ADENOMA, Dose [Carcinogen]: 70 MG/KG IN SALINE FOLLOWED 2 WK LATER BY SECOND TREATMENT): 9/18 (50%), 7/10 (70%), -40%, not calculated
- tumour outcome (control, treated, inhibition, significance) (Carcinogen: N-NITROSOBIS(2-OXOPROPYL)AMINE, 60599-38-4, 0.75% IN DIET FOR 16 WK BEGINNING 2 WK POST CARCINOGEN TREATMENT (STUDY DURATION: 20 WK), Species: HAMSTER, Strain/Sex: SYRIAN/FEMALE, Target Tissue: Type of Lesion: LIVER: CHOLANGIOCARCINOMA, Dose [Carcinogen]: 70 MG/KG IN SALINE FOLLOWED 2 WK LATER BY SECOND TREATMENT): 16/18 (89%), 8/10 (80%), 10%, not calculated
- tumour outcome (control, treated, inhibition, significance) (Carcinogen: N-NITROSOBIS(2-OXOPROPYL)AMINE, 60599-38-4, 0.75% IN DIET FOR 16 WK BEGINNING 2 WK POST CARCINOGEN TREATMENT (STUDY DURATION: 20 WK), Species: HAMSTER, Strain/Sex: SYRIAN/FEMALE, Target Tissue: Type of Lesion: LIVER: NEOPLASTIC NODULE, Dose [Carcinogen]: 70 MG/KG IN SALINE FOLLOWED 2 WK LATER BY SECOND TREATMENT): 18/18 (100%), 10/10 (100%), 0%, not significant
- tumour outcome (control, treated, inhibition, significance) (Carcinogen: N-NITROSOBIS(2-OXOPROPYL)AMINE, 60599-38-4, 0.75% IN DIET FOR 16 WK BEGINNING 2 WK POST CARCINOGEN TREATMENT (STUDY DURATION: 20 WK), Species: HAMSTER, Strain/Sex: SYRIAN/FEMALE, Target Tissue: Type of Lesion: PANCREAS: ADENOCARCINOMA, Dose [Carcinogen]: 70 MG/KG IN SALINE FOLLOWED 2 WK BY SECOND TREATMENT): 14/18 (78%), 6/10 (60%), 23%, not calculated
- tumour outcome (control, treated, inhibition, significance) (Carcinogen: N-NITROSOBIS(2-OXOPROPYL)AMINE, 60599-38-4, 1.5% IN DIET FOR 16 WK BEGINNING 2 WK POST CARCINOGEN TREATMENT (STUDY DURATION: 20 WK), Species: HAMSTER, Strain/Sex: SYRIAN/FEMALE, Target Tissue: Type of Lesion: GALL BLADDER: ADENOMA, Dose [Carcinogen]: 70 MG/KG IN SALINE FOLLOWED 2 WK LATER BY SECOND TREATMENT): 9/18 (50%), 10/17 (59%), -18%, not calculated
- tumour outcome (control, treated, inhibition, significance) (Carcinogen: N-NITROSOBIS(2-OXOPROPYL)AMINE, 60599-38-4, 1.5% IN DIET FOR 16 WK BEGINNING 2 WK POST CARCINOGEN TREATMENT (STUDY DURATION: 20 WK), Species: HAMSTER, Strain/Sex: SYRIAN/FEMALE, Target Tissue: Type of Lesion: GALL BLADDER: CARCINOMA, Dose [Carcinogen]: 70 MG/KG IN SALINE FOLLOWED 2 WK LATER BY SECOND TREATMENT): 1/18 (6%), 2/17 (12%), -100%, not calculated
- tumour outcome (control, treated, inhibition, significance) (Carcinogen: N-NITROSOBIS(2-OXOPROPYL)AMINE, 60599-38-4, 1.5% IN DIET FOR 16 WK BEGINNING 2 WK POST CARCINOGEN TREATMENT (STUDY DURATION: 20 WK), Species: HAMSTER, Strain/Sex: SYRIAN/FEMALE, Target Tissue: Type of Lesion: LIVER: CHOLANGIOCARCINOMA, Dose [Carcinogen]: 70 MG/KG IN SALINE FOLLOWED 2 WK LATER BY SECOND TREATMENT): 16/18 (89%), 11/17 (65%), 27%, not calculated
- tumour outcome (control, treated, inhibition, significance) (Carcinogen: N-NITROSOBIS(2-OXOPROPYL)AMINE, 60599-38-4, 1.5% IN DIET FOR 16 WK BEGINNING 2 WK POST CARCINOGEN TREATMENT (STUDY DURATION: 20 WK), Species: HAMSTER, Strain/Sex: SYRIAN/FEMALE, Target Tissue: Type of Lesion: LIVER: NEOPLASTIC NODULE, Dose [Carcinogen]: 70 MG/KG IN SALINE FOLLOWED 2 WK LATER BY SECOND TREATMENT): 100%, 100%, 0%, not significant
- tumour outcome (control, treated, inhibition, significance) (Carcinogen: N-NITROSOBIS(2-OXOPROPYL)AMINE, 60599-38-4, 1.5% IN DIET FOR 16 WK BEGINNING 2 WK POST CARCINOGEN TREATMENT (STUDY DURATION: 20 WK), Species: HAMSTER, Strain/Sex: SYRIAN/FEMALE, Target Tissue: Type of Lesion: PANCREAS: ADENOCARCINOMA, Dose [Carcinogen]: 70 MG/KG IN SALINE FOLLOWED 2 WK LATER BY SECOND TREATMENT): 14/18 (78%), 13/17 (76%), 3%, not calculated
